From patent publication US6518450B2, “Guaiacoxypropanolamines with alpha/beta adrenergic blocking activity” (priority 1997, dated 2003)
Read-outs that look alike come from different tables or passages of the source. Marks after values point to notes of the source that are not given here.

How the values were obtained:
[1] = system: pentobarbital-anesthetized normotensive rats; details: mean ± S.E. (n=6)
Description: A male Wistar Strain, weighing 300˜450 grams, is administered with 40 mg/kg of pentobarbital sodium via hypodermic syringe for anesthesia before implementing trachea dissection and inserting respiratory tube to ensure the animal maintains smooth breath during operation, while also facilitating emergency rescue. The tube insertion is done with a polyethylene tube (PE50), with inner diameter of […] and outer diameter of 0.97 mm, on the femoral vein to facilitate administering medication during the experiment; a 3-way stopcock is used by connecting one end to the medicated bottle, while the other end is connected to the saline solution bottle, thus some saline solution can be injected right after administering the medication to prevent the medication from lingering in the polyethylene tube (PE50) that may affect the accuracy of the experiment. The left artery is also inserted with the polyethylene tube(PE50) by using the same 3-way stopcock with one end connected to heparin solution as the polyethylene tube (PE50) is equipped with a valve to clear any blockage in the path; the other end is connected to disposable diaphgram dome (TA1019), which is then connected to the data converter, and through an amplifier, and then finally through the recorder to record the medication's impact on the male Wistar Strain's blood pressure and heartbeat. The Wistar Strain is given different dosages of test medication in 1.0, 1.5, 3.0 mg/kg respectively through intravenous injection to examine the medication's effects on heartbeat and blood pressure.

α-adrenoceptor = details: versus L-phenylephrine contraction of detached chest artery; Schild plot regression
Description: Same as the blood vein relaxation experiment, detached primary artery taken from the guinea pig is given 1 gram of tension, and upon balancing for 60 minutes, L-phenylephrine is administered directly from low concentration to high using 0.5 log unit to gradually increase until the maximum reaction is reached, and this act as the control unit. Then different concentrations of the synthetic testing compound, 10^−7 M, 10^−6 M, or 10^−5 M, are used, and upon 30 minutes of reaction, L-phenylephrine is used again to complete the cumulative dose. The EC50 value may be obtained from observation of the suppressing effects caused by different concentrations of the synthetic testing compound.
It is same as the calculation method used in the experiment of the detached right auricle.

β1-adrenoceptor [2] = details: versus isoproterenol, pulsating rate of right atrium; Schild plot regression; six to eight experiments
Text: A 300˜450 gram guinea pig is obtained and hit forcefully at the head to put it into comatose, the artery at the neck is cut to release the blood, then the chest is immediately cut open, and the heart quickly retrieved and placed in Krebs solution that is connected to mixed gas(95% oxygen, 5% carbon dioxide), and the left, right auricles separated. The right auricle, which is pulsating in reflex action, is pinned down on both ends by a frog-heart tweezer, and one end stabilized at the bottom and placed in an organ rinser filled with 10 milliliter of Krebs solution with the mixed gas, and the temperature maintained at 32.5[…]; the other end is connected to the force transducer, and the isometric contractions and pulsating frequency are recorded through the Coulbourn At-High-Speed Videograph. The specimen is given tension between 100-150 milligrams, and upon balancing, the following experiment is conducted:
In order to evaluate the degree of vivacity of the β-blockade on the synthetic compounds, for each detached auricle in reflex pulsation, upon balancing(approximately 60 minutes), the cumulative-concentration curve of the β-agonist isoproterenol is completed twice separately. The experiment is designed as follows: <1>The first curve indicates direct application of isoproterenol from low concentration to high using 0.5 log unit to gradually increase until it reaches the maximum reaction; this is the control unit. <2>the second curve is the experimental unit. Different concentrations of synthetic testing compounds(10^−7 M, 10^−6 M, or 10^−5 M), from low concentration to high, are given 30 minutes to react before isoproterenol is used to complete the cumulative prescription. The EC50 value is obtained from observation of the suppressing effects generated from different concentrations of synthetic testing compounds.
According to the method used by Arunlakshana and Schild in 1959, the corresponding values of the synthetic testing compounds are used as the horizontal coordinate, and the corresponding values on the first derivative of the dose ratio are used as the vertical coordination, the values obtains are graphed and linear regression is implemented to obtain a regressed straight-line horizontal coordinate's extracted distance value, which is the pA2 value for this particular synthetic testing compound.

β1-adrenoceptor [3] = details: versus isoproterenol, contraction of left atrium; Schild plot regression; six to eight experiments
Description: The stimulating frequency is 0.5 Hz, resting tension is 0.5 grams. Upon balancing(approximately 50 minutes) the following experiment is conducted;
(a) Completion of the cumulative concentration-response curves, which is similar to the experimenting methods use on the same detached right auricle.
(b) The calculation of pA2 value is same as the calculation method used in the experiment of the detached right auricle.

β2-adrenoceptor = target: T1, β2-adrenoceptor (Cavia porcellus, UniProt Q8K4Z4); test: β2 adrenergic blockade against isoproterenol, isolated guinea pig respiratory tract (Schild plot); details: versus isoproterenol relaxation of detached respiratory tract; Schild plot regression
T1 construct: from tissue; host or cells: isolated guinea pig trachea (spiral strips, reserpine-pretreated animal)
Description: 300-450 gram guinea pig is obtained, and 5 mg/kg reserpine is injected on the belly 18˜24 hours prior to the experiment. Upon hitting the guinea pig into comatose, the artery at the neck is cut and the blood released, and the chest is immediately cut open and the respiratory tract (approximately 4 centimeters long) is taken along the neck and placed in a cultivation dish containing Krems solution at room temperature and connected to mixed gas of 95% oxygen and 5% carbon dioxide. The surrounding tissues are carefully removed, then the respiratory tract is cut to spiral shape that contains 3 to 4 bone coils at each turn, and then cut in two halves, with the two sides clamped by the frog-heart tweezer; one end is stabilized at the bottom and placed in the organ rinser filled with 20 ml of Krebs solution with mixed gas and the temperature maintained at 32° C.; the other side is connected to the force transducer, and even-length isometric contraction is recorded through the Coulbourn At-High-Speed Videograph. The sample is given 2 grams of tension, and upon balancing, the following experiment is conducted.
The respiratory tract used in the experiment is first balanced (approximately one hour) to derive a reflex tension, and then for each half of the respiratory tract, cumulative concentration-response curve for the isoproterenol is completed twice. In the first curve, no synthetic testing compound is added, and is used as the control unit; in the second curve, the synthetic compound first added for an hour before implementing the cumulative concentration-response curve, which is the experimental unit.

[4] = system: isolated guinea pig thoracic aorta; details: 10 μM L-phenylephrine contraction, mean ± S.E. (n=6)
Text: A 300-450 gram guinea pig is obtained, and forcefully hit at the head, and blood drained from the artery at the neck to quickly retrieve the main chest artery, which is placed in chilled Kreb solution and the fatty tissue clung to the vicinity of the blood vein is carefully removed, and then the main chest artery is trimmed to a circular shape of approximately 5 mm. Two S-shaped platinum threads are used to stabilize the top and bottom of the main artery before placing it in a 10-milliliter organ tank with 95% oxygen and 5% carbon dioxide mixed gas. One end is connected to the bottom of the organ tank, and the other end connected to the force transducer, and a recorder is used to record the isometric contraction. The specimen is given one gram of tension, and after balancing for 60 minutes, 10 μM of phenylephrine is prescribed to test the vivacity of the main chest artery. Upon balancing and the phenylephrine rinsed off, 10 μM of phenylephrine is used again to achieve the maximum contraction. And upon balancing, different concentration of synthetic testing compounds are used, 10^−5 M, 10^−6 M, or 10^−7 M, to observe the suppressing effects resulted from different concentrations of synthetic testing compounds.

T1 sequence (Q8K4Z4 whole entry): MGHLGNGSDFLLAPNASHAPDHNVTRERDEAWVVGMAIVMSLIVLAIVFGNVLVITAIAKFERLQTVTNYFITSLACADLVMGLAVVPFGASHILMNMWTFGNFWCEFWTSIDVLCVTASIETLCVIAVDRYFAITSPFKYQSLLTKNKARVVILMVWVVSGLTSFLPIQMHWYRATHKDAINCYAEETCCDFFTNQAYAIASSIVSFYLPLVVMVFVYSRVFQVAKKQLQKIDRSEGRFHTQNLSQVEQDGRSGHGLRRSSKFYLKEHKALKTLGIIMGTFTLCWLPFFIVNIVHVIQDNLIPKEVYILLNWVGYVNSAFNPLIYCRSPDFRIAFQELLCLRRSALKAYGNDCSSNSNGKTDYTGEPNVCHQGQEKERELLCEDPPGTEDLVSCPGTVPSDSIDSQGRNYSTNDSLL

| SMILES | Blood pressure change ([1]; 1 mg/kg intravenous) | Blood pressure change ([1]; 1.5 mg/kg intravenous) | Blood pressure change ([1]; 3 mg/kg intravenous) | PA2 value α (α-adrenoceptor) | PA2 value β1 right atrium (β1-adrenoceptor [2]) | PA2 value β1 left atrium (β1-adrenoceptor [3]) | PA2 value β2 (β2-adrenoceptor) | percentage of relaxation in comparison with the basal value ([4]; 10^−5 M) | percentage of relaxation in comparison with the basal value ([4]; 10^−6 M) | percentage of relaxation in comparison with the basal value ([4]; 10^−4 M) |
| --- | --- | --- | --- | --- | --- | --- | --- | --- | --- | --- |
| CCOC(=O)C=Cc1ccc(OCC(O)CNCCOc2ccccc2OC)c(OC)c1 (stereo not shown) [Compound 2, 1-[(4-propenoic acid ethyl ester-2-methoxy)phenoxy]-3-[(2-methoxyphenoxyethyl)amino]-propanol] | −37.5 ± 5.2 mmHg | −44.2 ± 8.0 mmHg | −52.4 ± 4.5 mmHg | 7.95 | 8.02 | 8.16 | 7.05 | −42.1 ± 9.1% | −35.9 ± 7.9% | – |
| CC=Cc1ccc(OCC(O)CNCCOc2ccccc2OC)c(OC)c1 (stereo not shown) [Compound 4, 1-[(4-propenyl-2-methoxy)-phenoxy]-3-[(2-methoxyphenoxyethyl)amino]-propanol] | −24.9 ± 3.2 mmHg | −29.5 ± 5.1 mmHg | −36.4 ± 7.2 mmHg | 7.20 | 7.63 | 7.89 | 6.13 | −30.1 ± 3.6% | −23.4 ± 3.7% | – |
| CCCCCCCCC(=O)NCc1ccc(OCC(O)CNCCOc2ccccc2OC)c(OC)c1 (stereo not shown) [Compound 3] | −32.6 ± 5.5 mmHg | −41.7 ± 4.0 mmHg | −52.0 ± 8.0 mmHg | 7.12 | 7.80 | 7.61 | 6.81 | −40.7 ± 8.4% | −34.5 ± 4.2% | – |
| C=CCc1ccc(OCC(O)CNCCOc2ccccc2OC)c(OC)c1 (stereo not shown) [Compound 1, 1-[(4-allyl-2-methoxy)phenoxy}-3-[(2-methoxyphenoxyethyl)amino}-propanol] | −23.1 ± 4.5 mmHg | −30.1 ± 3.6 mmHg | −38.1 ± 5.1 mmHg | 8.12 | 7.83 | 7.95 | 6.59 | −51.7 ± 6.8% | −39.7 ± 9.1% | −62.8 ± 8.7^a % |
